From US20230295106A1 (priority 2019, published 2023)

Columns and labels:
[1] = molecular target: T1, 5-HT2C edited (accession number AAF35842.1) (Homo sapiens, UniProt P28335, I156V/I160V/N158S); test: biochemical; details: 5-HT2C Radioligand Binding Activity
Target sequence in this assay (P28335 33-458 I156V/N158S/I160V limits assumed): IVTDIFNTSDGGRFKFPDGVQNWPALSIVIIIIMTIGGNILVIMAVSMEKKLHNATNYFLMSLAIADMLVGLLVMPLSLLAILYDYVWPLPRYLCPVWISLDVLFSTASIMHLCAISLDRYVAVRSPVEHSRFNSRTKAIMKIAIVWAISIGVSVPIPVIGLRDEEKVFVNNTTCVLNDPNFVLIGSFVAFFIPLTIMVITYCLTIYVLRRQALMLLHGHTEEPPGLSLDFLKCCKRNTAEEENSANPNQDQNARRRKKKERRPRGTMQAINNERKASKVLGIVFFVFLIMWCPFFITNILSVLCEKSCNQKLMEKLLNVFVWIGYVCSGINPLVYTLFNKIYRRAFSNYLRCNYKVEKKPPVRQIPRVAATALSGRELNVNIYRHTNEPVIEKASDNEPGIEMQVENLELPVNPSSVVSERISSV

[2] = molecular target: T1, 5-HT2C edited (accession number AAF35842.1); test: cell-based; details: 5-HT2C IPOne Agonism Activity
Target sequence in this assay (P28335 whole entry I156V/N158S/I160V, looked up): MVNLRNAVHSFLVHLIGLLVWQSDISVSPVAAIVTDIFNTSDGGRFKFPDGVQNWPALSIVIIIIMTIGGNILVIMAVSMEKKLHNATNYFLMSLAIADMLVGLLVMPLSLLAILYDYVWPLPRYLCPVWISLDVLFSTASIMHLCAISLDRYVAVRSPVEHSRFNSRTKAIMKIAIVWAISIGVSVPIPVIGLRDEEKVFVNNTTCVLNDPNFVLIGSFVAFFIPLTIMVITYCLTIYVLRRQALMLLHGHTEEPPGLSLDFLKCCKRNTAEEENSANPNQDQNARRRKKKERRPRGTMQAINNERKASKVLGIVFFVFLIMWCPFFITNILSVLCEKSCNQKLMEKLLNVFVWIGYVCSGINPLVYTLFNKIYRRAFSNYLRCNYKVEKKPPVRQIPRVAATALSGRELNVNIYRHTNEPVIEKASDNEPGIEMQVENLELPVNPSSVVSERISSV

[3] = molecular target: human recombinant 5-HT2C edited receptor (accession number AAF35842.1) (Homo sapiens, UniProt P28335, I156V/N158S/I160V); test: cell-based; details: read-out: 5-HT2C IPOne Agonism Activity
Chain of human recombinant 5-HT2C edited receptor (accession number AAF35842.1) (P28335 whole entry I156V/N158S/I160V, looked up): as above

SMILES	IC50 [1]	EC50 [2]	EC50 [3]
CCN(CC)C(=O)[C@@H]1C=C(c2cccc(OC)c2)CN(C)C1 (single isomer, unassigned) [Compound 9, N,N-diethyl-5-(3-methoxyphenyl)-1-methyl-1,2,3,6-tetrahydropyridine-3-carboxamide]	10 to 100 nM	10 to 100 nM	–
CN(C)C1Cc2cccc3ccn(c23)C1 (single isomer, unassigned) [Compound 15, N,N-dimethyl-5,6-dihydro-4H-pyrrolo[3,2,1-ij]quinolin-5-amine]	101 to 1000 nM	–	101 to 1000 nM
NC1Cc2c(Cl)ccc3ccn(c23)C1 (centres unmarked) [Compound 23, 7-chloro-5,6-dihydro-4H-pyrrolo[3,2,1-ij]quinolin-5-amine]	101 to 1000 nM	101 to 1000 nM	–
CCN(CC)C(=O)[C@@H]1C=C(c2ccccc2OC)CN(C)C1 (single isomer, unassigned) [Compound 8, N,N-diethyl-5-(2-methoxyphenyl)-1-methyl-1,2,3,6-tetrahydropyridine-3-carboxamide]	1000 to 10000 nM	1000 to 10000 nM	–
CCN(CC)C1Cc2cccc3ccn(c23)C1 (centres unmarked) [Compound 16, N,N-diethyl-5,6-dihydro-4H-pyrrolo[3,2,1-]quinolin-5-amine]	101 to 1000 nM	101 to 1000 nM	–
COc1cc2c3c(ccn3CC(N)C2)c1 (centres unmarked) [Compound 25, 8-methoxy-5,6-dihydro-4H-pyrrolo[3,2,1-ij]quinolin-5-amine]	1000 to 10000 nM	1000 to 10000 nM	–
CN(C)C1Cc2cccc3ccn(c23)C1 (single isomer, unassigned) [Compound 14, N,N-dimethyl-5,6-dihydro-4H-pyrrolo[3,2,1-ij]quinolin-5-amine]	10 to 100 nM	101 to 1000 nM	–
NC1Cc2c(F)ccc3ccn(c23)C1 (centres unmarked) [Compound 19, 7-fluoro-5,6-dihydro-4H-pyrrolo[3,2,1-ij]quinolin-5-amine]	101 to 1000 nM	101 to 1000 nM	–
CCN(CC)C(=O)[C@@H]1C=C(c2cccc(OC)c2)CN(C)C1 (single isomer, unassigned) [Compound 10, N,N-diethyl-5-(3-methoxyphenyl)-1-methyl-1,2,3,6-tetrahydropyridine-3-carboxamide]	101 to 1000 nM	101 to 1000 nM	–
NC1Cc2cc(F)cc3ccn(c23)C1 (centres unmarked) [Compound 17, 8-fluoro-5,6-dihydro-4H-pyrrolo[3,2,1-ij]quinolin-5-amine]	101 to 1000 nM	101 to 1000 nM	–
CCN(CC)C(=O)[C@@H]1C=C(c2ccccc2OC)CN(C)C1 (single isomer, unassigned) [Compound 7, N,N-diethyl-5-(2-methoxyphenyl)-1-methyl-1,2,3,6-tetrahydropyridine-3-carboxamide]	101 to 1000 nM	101 to 1000 nM	–
CCN(CC)C(=O)[C@@H]1C=C(c2cc(OC)cc(OC)c2)CN(C)C1 (single isomer, unassigned) [Compound 5, 5-(3,5-dimethoxyphenyl)-N,N-diethyl-1-methyl-1,2,3,6-tetrahydropyridine-3-carboxamide]	101 to 1000 nM	101 to 1000 nM	–
NC1Cc2cccc3ccn(c23)C1 (centres unmarked) [Compound 13, 5,6-dihydro-4H-pyrrolo[3,2,1-ij]quinolin-5-amine]	101 to 1000 nM	101 to 1000 nM	–
NC1Cc2cccc3[nH]cc(c23)C1 (centres unmarked) [Compound 27, 1,3,4,5-tetrahydrobenzo[cd]indol-4-amine]	101 to 1000 nM	101 to 1000 nM	–
NC1Cc2cc(Cl)cc3ccn(c23)C1 (centres unmarked) [Compound 21, 8-chloro-5,6-dihydro-4H-pyrrolo[3,2,1-ij]quinolin-5-amine]	101 to 1000 nM	101 to 1000 nM	–
CCN(CC)C(=O)[C@@H]1C=C(c2cc(OC)cc(OC)c2)CN(C)C1 (single isomer, unassigned) [Compound 6, 5-(3,5-dimethoxyphenyl)-N,N-diethyl-1-methyl-1,2,3,6-tetrahydropyridine-3-carboxamide]	1000 to 10000 nM	1000 to 10000 nM	–
